PMC5431889, “Stapled BIG3 helical peptide ERAP potentiates anti-tumour activity for breast cancer therapeutics” (Scientific Reports, 2017)
Where a SMILES comes first, the peptide text is derived from it.

Tests used:
[1] = test system: MCF-7 cells; format: cell-based, human; settings: 96 h
Description: After […] ERAP). Microarray analysis. […]

[2] = Circular dichroism, α-helical content; format: physicochemical; settings: CD 185-265 nm, 25 °C, 50 μg mL−1 in 10 mM sodium phosphate buffer pH 7.0
Description: CD spectrum in the range of 185 to 265 nm was recorded at 25 °C in a 2 mm-path quartz cuvette. Protein concentration was 50 μg mL^−1 in 10 mM sodium phosphate buffer (pH 7.0). Molar ellipticity [θ] was calculated.

[3] = test system: KPL-3C orthotropic breast cancer xenografts; experiment: In vivo tumour growth inhibition, KPL-3C orthotopic xenografts; design: species or system mice; settings: intraperitoneal, E2 6 μg per day, n = 5
Description: KPL-3C cell suspensions (1 × 10^7 cells per mouse) were mixed with an equal volume of Matrigel (Corning) and injected (200 μL total) into the mammary fat pads of 6-week-old female BALB/c nude mice (Charles River Laboratories). The mice were housed in a pathogen-free isolation facility with a 12 h light/dark cycle and were fed rodent chow and water ad libitum. The tumours developed over a period of a few days, reaching sizes of approximately 100 mm^3 [calculated as 1/2 × (width × length^2)], upon injection of 6 μg per day of E2 solution to the neck skin. For intraperitoneal administration, the mice were randomized into 10 treatment groups (five animals per group): (1) no treatment; (2) 6 μg per day E2; (3) E2 + 1.4 mg kg^−1 day^−1 ERAP daily; (4) E2 + 1.4 mg kg^−1 day^−1 ERAP every 4 days; (5) E2 + 14 mg kg^−1 day^−1 ERAP daily; (6) E2 + 14 mg kg^−1 day^−1 ERAP every 4 days; (7) E2 + 1.4 mg kg^−1 day^−1 stERAP-6 daily; (8) E2 + 1.4 mg kg^−1 day^−1 stERAP-6 every 4 days; (9) E2 + 14 mg kg^−1 day^−1 stERAP-6 daily; and 10() E2 + 14 mg kg^−1 day^−1 stERAP-6 every 4 days. For intravenous administration, the mice were randomized into 10 treatment groups (five animals per group): (1) no treatment; (2) 6 μg per day E2; (3) E2 + 0.1 mg kg^−1 day^−1 stERAP-6 daily; (4) E2 + 1 mg kg^−1 day^−1 stERAP-6 daily; (5) E2 + 10 mg kg^−1 day^−1 stERAP-6 daily; (6) E2 + 0.1 mg kg^−1 day^−1 stERAP-6 weekly; (7) E2 + 1 mg kg^−1 day^−1 stERAP-6 weekly; (8) E2 + 10 mg kg^−1 day^−1 stERAP-6 weekly; (9) E2 + 1 mg kg^−1 day^−1 alanine-mutant stERAP-6 daily; and (10) E2 + 10 mg kg^−1 day^−1 alanine-mutant stERAP-6 daily. E2 was delivered via the application of a solution to the neck skin as previously noted.
The tumour volume was measured with calipers, after which time the mice were sacrificed and tumours excised. TGI was calculated according to the formula: [1 − (T − T0)/(C − C0)] × 100, where T and T0 are the mean tumour volumes at day 28 or 35 and day 1, respectively, for the experimental group, and C and C0 are those for the E2-treated group. The organs (heart, lung, liver, kidney, pancreas, and brain) were also immediately removed. A portion of each tissue was fixed in 10% neutral formalin for histological examination, while the remaining tissue sample was frozen and preserved at −80 °C for subsequent western blot analysis. All the experiments were performed in accordance with the guidelines of the animal care and use facility at Tokushima University.

[4] = test system: TAM-R MCF-7 cells; experiment: MTT assay, tamoxifen-resistant (TAM-R) MCF-7 cell growth; format: cell-based, human; settings: 10 nM E2 and 1 μM tamoxifen, single treatment at 0 h, up to 96 h; three independent experiments
Description: (a) MTT assays evaluating the inhibitory effect of unstapled, original ERAP (left) and stERAP-6 (right) on the growth of tamoxifen-resistant (TAM-R) MCF-7 cells. TAM-R MCF-7 cells were treated with unstapled original ERAP or stERAP-6 in the presence of 10 nM E2 and 1 μM tamoxifen (TAM) at 0 h. The data represent the mean ± s.d. of three independent experiments.

[5] = test system: BIG3-PHB2 complex and ERα signalling in tumours; experiment: Co-immunoprecipitation, RT-PCR and immunoblot analysis of excised KPL-3C tumours; format: in vivo, mice
Description: Immunoblot analyses were performed as described previously. After SDS-PAGE, the membranes were blocked with 4% BlockAce solution (Dainippon Pharmaceutical) for 3 h and then incubated with antibodies against the following proteins: BIG3 (1:1,000)[10]; PHB2 (1:1,000, Abcam); Akt (1:1,000), phospho-Akt (S473) (587F11, 1:1,000); p44/42 MAPK (1:1,000), phospho-p44/42 MAPK (T202/Y204) (1:1,000); mTOR (1:1,000); phospho-mTOR (S2448) (1:1,000); S6K (1:1,000); phopho-S6K (T389) (1:1,000); α/β-tubulin (1:1,000) (Cell Signalling Technology); and LMNB1 (1:100, Sigma). After incubation with an HRP-conjugated secondary antibody (anti-mouse IgG-HRP, 1:5,000; anti-rat IgG-HRP; 1:5,000; or anti-rabbit IgG-HRP, 1:1,000; Santa Cruz Biotechnology) for 1 h, the blots were developed with an enhanced chemiluminescence (ECL) system (GE Healthcare) and scanned using an Image Reader LAS-3000 mini (Fujifilm). All the experiments were performed in triplicate at a minimum. Full-length images of immunoblots are shown in Supplementary Fig. S5. […]
The expression of the ERα target genes (TFF1 and CCND1) was evaluated by real-time RT-PCR as described previously. Each sample was normalized to the β 2-MG mRNA content, and the results were expressed as the fold increase over untreated cells (set at 1.0). […]
The tumour volume was measured with calipers, after which time the mice were sacrificed and tumours excised. […]

[6] = test system: MCF-7 cells; settings: E2-dependent breast cancer cell growth; cited from earlier work
Description: We previously developed a dominant-negative peptide, ER α activity-regulator synthetic peptide (ERAP), which specifically disrupts the BIG3-PHB2 interaction and inhibits multiple ERα-signalling pathways driving breast cancer cell growth by reactivating tumour-suppressive activity of PHB2[10]. […] However, its inhibitory effect was only maintained for 24 h, most likely due to its high susceptibility to proteolytic degradation.

[7] = test system: MCF-7 cells; experiment: Cell cycle assay by flow cytometry (propidium iodide); format: cell-based, human; settings: 10 nM E2, 10 μM stERAP-6, 1 μM tamoxifen
Description: Cells were fixed in cold 70% ethanol, incubated with 20 µg mL^−1 propidium iodide (Sigma) and 1 mg mL^−1 ribonuclease A (Sigma), and analysed by flow cytometry using a FACSCalibur with CellQuest software (BD).

[8] = biological target: prohibitin 2 (human (endogenous in MCF-7 and KPL-3C), UniProt Q99623 1-299); experiment: cell-based or functional assay
[9] = biological target: T1, His-tagged recombinant PHB2 (UniProt Q99623 1-299); experiment: SPR; Biacore 3000; recombinant PHB2 bound to a CM5 sensor chip, peptides as analytes at the indicated concentrations; BIAevaluation software; settings: both partners purified
T1 construct: PHB2 (prohibitin 2), recombinant, His-tagged; also called His-PHB2; source: recombinant
T1 sequence (Q99623 whole entry): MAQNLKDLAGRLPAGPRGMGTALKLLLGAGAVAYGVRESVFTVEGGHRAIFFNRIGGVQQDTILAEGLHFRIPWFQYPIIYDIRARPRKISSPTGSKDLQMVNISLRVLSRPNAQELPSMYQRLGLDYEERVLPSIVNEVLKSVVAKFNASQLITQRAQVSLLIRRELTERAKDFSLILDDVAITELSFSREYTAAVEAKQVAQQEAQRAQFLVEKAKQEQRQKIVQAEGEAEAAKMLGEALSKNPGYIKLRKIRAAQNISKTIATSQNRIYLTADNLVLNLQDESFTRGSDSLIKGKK

Chain of prohibitin 2 (Q99623 whole entry): as above

With `CSCC[C@H](NC(=O)[C@H](CCC(N)=O)NC(=O)CNC(=O)CNC(=O)CNC(=O)[C@H](CCCNC(=N)N)NC(=O)[C@H](CCCNC(=N)N)NC(=O)[C@H](CCCNC(=N)N)NC(=O)[C@H](CCCNC(=N)N)NC(=O)[C@H](CCCNC(=N)N)NC(=O)[C@H](CCCNC(=N)N)NC(=O)[C@H](CCCNC(=N)N)NC(=O)[C@H](CCCNC(=N)N)NC(=O)[C@H](CCCNC(=N)N)NC(=O)[C@H](CCCNC(=N)N)NC(=O)[C@@H](N)CCCNC(=N)N)C(=O)N[C@@H](CC(C)C)C(=O)N[C@@H](CO)C(=O)N[C@@H](CC(=O)O)C(=O)N[C@@H](CC(C)C)C(=O)N[C@H](C(=O)N[C@@H](CC(C)C)C(=O)N[C@@H](CCC(N)=O)C(=O)N[C@@H](CC(C)C)C(=O)N[C@@H](CCCNC(=N)N)C(=O)N[C@@H](CCC(N)=O)C(=O)N[C@@H](CCCNC(=N)N)C(=O)O)[C@@H](C)O` [ERAP] (H-RRRRRRRRRRRGGGQMLSDLTLQLRQR-OH; N-terminus and C-terminus assumed) the IC50 [1] was 7.97 µM, the α-helical content [2] was 21.4% and the “TGI on day 28” value ([3]; 1.4 mg kg−1 every 4 days) was 36.9%. The “TGI on day 28” value ([3]; 1.4 mg kg−1 once a day for 28 days) was 94.2%, the “TGI on day 28” value ([3]; 14 mg kg−1 every 4 days) was 40.3% and the “TGI on day 28” value ([3]; 14 mg kg−1 once a day for 28 days) was 94.5%. For the same molecule, the “inhibition of growth of TAM-R MCF-7 cells” value [4] was “reduced after 24 h treatment”, the “E2-induced expression of TFF1 and CCND1 and phosphorylation levels of Akt and MAPK in tumours” value ([5]; intraperitoneal treatment every 4 days for 28 days) was “did not” and the “inhibition of endogenous BIG3-PHB2 complex formation in tumours” value ([5]; intraperitoneal treatment every 4 days, co-immunoprecipitation) was “but not with unstapled original ERAP”. For the same molecule, the “duration of inhibitory effect” value [6] was 24 h.

For `CC/C(=C(\c1ccccc1)c1ccc(OCCN(C)C)cc1)c1ccccc1` [tamoxifen], the “apoptotic (sub-G1) cell population” value [7] was 7.44%.

B1: ERα activity-regulator synthetic peptide (native ERAP; 11R-GGG-QMLSDLTLQLRQR) (peptide)
peptide: RRRRRRRRRRRGGGQMLSDLTLQLRQR
notes: membrane-permeable polyarginine (11R) and GGG linker, printed as 11R-GGG; also called unstapled original ERAP; dominant-negative peptide; source: synthetic peptide
For B1, the “IC50 of E2-dependent MCF-7 cell growth at 96 h after a single treatment (MTT); the peptide blocks BIG3-PHB2” value [8] was 7.97 µM and the Kd [9] was 12.8 µM.
